Measured values published in patent publication US20230330069A1, “USE OF THIAZOLIDES AGAINST CORONAVIRUSES” (Romark Laboratories, L.C., priority 2020, published 2023).
Where two headings read alike, the source gives them in different places.

What was measured:
[1] = Example 5 trial: safety analyses (adverse events); details: one severe COVID-19, one aspiration (SARS-CoV-2 negative); not considered related to study medication
Text: (§1) After randomization, eligible subjects underwent a physical examination, collection of nasopharyngeal swabs, and blood and urine samples for laboratory safety testing and assessment of SARS-CoV-2 antibody titers. Study drug was dispensed, and subjects were followed for 28 days. Subjects were instructed to complete electronic diaries recording oral temperature twice daily and symptom severity once daily in the evening for 21 days and were contacted daily by telephone by site staff on study days 2-7 and 28 to verify compliance and screen for progression to severe illness or other complications. Repeat nasopharyngeal swabs were collected on study days 4 and 10. Follow up blood and urine samples for laboratory safety testing and assessment of SARS-CoV-2 antibody titers were collected on study day 22. Subjects were allowed to use acetaminophen and/or dextromethorphan for symptom relief along with standard-of-care rescue medications. Adverse events were collected continuously throughout the study and monitored until the events resolved.
(§2) Efficacy analyses were based on a modified intention to treat (mITT) population of subjects testing positive for SARS-CoV-2 at baseline.

SARS-CoV-2 = assay type: in vivo
[2] = Example 1 trial: adverse events / tolerability; assay type: in vivo, human; details: 600 mg orally twice daily
COVID-19 = details: 600 mg twice daily for seven days; hospitalized moderate to severe COVID-19; cited from earlier work
SARS-CoV-2 RNA = assay type: in vivo; details: for Mean (SD) Viral Load Change from Baseline / Percent Positive for SARS-CoV-2 RNA: nasopharyngeal swabs; for Percent Positive for SARS-CoV-2 RNA: 177 samples
[3] = in vivo
Text: as §1, §2

[4] = 133 subjects with moderate illness at baseline
[5] = all SARS-CoV-2-positive subjects (mITT)
[6] = all SARS-CoV-2-positive subjects (mITT), 600 mg twice daily for 5 days
[7] = all SARS-CoV-2-positive subjects (mITT), listed as NTZ
[8] = all SARS-CoV-2-positive subjects (mITT), listed as nitazoxanide
[9] = subgroup 'May Be' or 'At Increased Risk' for severe COVID-19 per CDC (protocol-defined stratification factor)
[10] = subgroup At High Risk of progressing to severe COVID-19 and/or hospitalization (per EUA documents for monoclonal antibodies)
[11] = subgroup At Increased Risk for severe COVID-19 per CDC

## CC(=O)Oc1ccccc1C(=O)Nc1ncc([N+](=O)[O-])s1 [Nitazoxanide, 2-(acetolyloxy)-N-(5-nitro-2-thiazolyl) benzamide]
[1]
  subjects who died during the study: Two
SARS-CoV-2; 68 subjects with moderate illness at baseline in nitazoxanide arm, placebo two of 65
  subjects progressing to severe illness: None and none
SARS-CoV-2; [4]
  TSR vs placebo: longer
  time to return to usual health vs placebo: longer
SARS-CoV-2; [5]
  relative reduction in rate of hospitalization, emergency room visit or death vs placebo: 82%
  relative reduction of progression to severe COVID-19 vs placebo: 85%
  subjects experiencing hospitalization, emergency room visit or death (%): 0.5%
  subjects experiencing hospitalization, emergency room visit or death (n/N): 1/184
SARS-CoV-2; [6]
  subjects progressing to severe COVID-19 (%): 0.5%
  subjects progressing to severe COVID-19 (n/N): 1/184
SARS-CoV-2; all SARS-CoV-2-positive subjects (mITT), 600 mg twice daily for 5 days, listed as NTZ
  subjects progressing to severe COVID-19 (%): (0.5%)
SARS-CoV-2; all SARS-CoV-2-positive subjects (mITT), 600 mg twice daily for 5 days, listed as nitazoxanide
  subjects progressing to severe COVID-19 (%): 0.5%
SARS-CoV-2; [7]
  relative reduction in rate of hospitalization, emergency room visit or death vs placebo: 82%
  relative reduction of progression to severe COVID-19 vs placebo: 85%
  subjects experiencing hospitalization, emergency room visit or death (%): (0.5%)
SARS-CoV-2; [8]
  relative reduction in rate of hospitalization, emergency room visit or death vs placebo: 82%
  relative reduction of progression to severe COVID-19 vs placebo: 85%
SARS-CoV-2; all mITT subjects, placebo 12.35 (7.18->21), p=0.88
  Median (IQR) time from first dose to sustained response (TSR): 13.28 (6.26->21) days
SARS-CoV-2; [9]
  relative reduction in rate of hospitalization, emergency room visit or death vs placebo: 81%
  relative reduction of progression to severe COVID-19 vs placebo: 84%
  subjects experiencing hospitalization, emergency room visit or death (%): (0.9%)
  subjects experiencing hospitalization, emergency room visit or death (n/N): 1/112
  subjects progressing to severe COVID-19 (%): (0.9%)
  subjects progressing to severe COVID-19 (n/N): 1/112
SARS-CoV-2; [10]
  relative reduction in rate of hospitalization, emergency room visit or death vs placebo: 77%
  relative reduction of progression to severe COVID-19 vs placebo: 81%
  subjects experiencing hospitalization, emergency room visit or death (%): (1.7%)
  subjects experiencing hospitalization, emergency room visit or death (n/N): 1/60
  subjects progressing to severe COVID-19 (%): (1.7%)
  subjects progressing to severe COVID-19 (n/N): 1/60
SARS-CoV-2; [11]
  relative reduction in rate of hospitalization, emergency room visit or death vs placebo: 81%
  relative reduction of progression to severe COVID-19 vs placebo: 83%
  subjects experiencing hospitalization, emergency room visit or death (%): (1.0%)
  subjects experiencing hospitalization, emergency room visit or death (n/N): 1/104
  subjects progressing to severe COVID-19 (%): (1.0%)
  subjects progressing to severe COVID-19 (n/N): 1/104
SARS-CoV-2; subjects with mild illness at baseline, n=116, placebo 13.4
  median TSR: 10.3 days
SARS-CoV-2; subjects with mild illness at baseline, p=0.0075
  reduction of median time to return to usual health vs placebo: 5.2 days
SARS-CoV-2; subjects with mild illness at baseline, p=0.0932
  reduction of median TSR (time to sustained clinical recovery) vs placebo: 3.1 days
SARS-CoV-2; subjects with mild illness at baseline, placebo 18.4
  median time from first dose until subjects reported returning to usual health: 13.2 days
[2]; placebo 1.0%
  adverse event: mild chromaturia, subjects: 14.6%
[2]; placebo 4.9%
  adverse event: diarrhea, subjects: 6.6%
COVID-19
  duration of supplemental oxygen vs placebo: reductions
  rate of mechanical ventilation vs placebo: reductions
  rate of mortality vs placebo: reductions
  time to hospital discharge vs placebo: reductions
SARS-CoV-2 RNA; Day 4
  Mean (SD) Viral Load Change from Baseline: −0.70 (1.573) log10 copies/mL
  Percent Positive for SARS-CoV-2 RNA: 94%
SARS-CoV-2 RNA; Day 10
  Mean (SD) Viral Load Change from Baseline: −2.49 (1.582) log10 copies/mL
  Percent Positive for SARS-CoV-2 RNA: 73%
SARS-CoV-2 RNA; single NTZ-treated subject who progressed to severe COVID-19, Day 1 value 7.39
  Viral Load Day 4: 7.39/4.79 log10 RNA copies/mL
[3]; human
  subjects reporting at least one adverse event (%): 13.3%
  subjects reporting diarrhea (%): 3.4%
[3]
  subjects reporting at least one adverse event (number): Sixty-three
  subjects reporting serious adverse events: Two
  subjects who discontinued study medication due to adverse events: Two
[3]; po
  safety and tolerability: safe and well tolerated
